The nature of data set [1]: Clinical pharmacokinetics study in healthy volunteers, IV bolus + 1-step infusion. Type of data set: in vivo, human. As to conditions: for Cmax / concentration at 12 hours: both sexes, human, plasma; for Cmax: intravenous, read-out: AOL plasma concentration Cmax; for concentration at 12 hours: iv, read-out: AOL plasma concentration End of 12-hour infusion (IV). The method, then: The concentration of AOL in the subject's plasma can be measured by means and methods well known to the skilled artisan, such as liquid chromatography-mass spectrometry (LC/MS) or any other suitable means or method. For example, a blood sample from the subject can be centrifuged—preferably within 30 minutes after blood sampling—at about 1 500 g for 10 minutes at 2-8° C. to obtain plasma—the skilled artisan is familiar with method of obtaining plasma from a blood sample, and can readily adapt the centrifugal force, time, temperature and any other parameter according to their routine practice. Immediately after centrifugation, the plasma sample can be analyzed to assess the concentration of AOL by liquid chromatography-mass spectrometry (LC/MS).
A single site, randomized, placebo-controlled, open-label and single blind, ascending dose, cross-over study primarily aiming at evaluating the pharmacokinetics, safety and tolerability of AOL administered intravenously in healthy volunteers versus a marketed formulation of AOL (Sulfarlem 525 ®) administered orally was carried out at QPS Netherlands B.V. (Groningen, The Netherlands). Twelve healthy male and female subjects aged between 18 and 65 years old were included in this study.
During this clinical pharmacokinetics study, several dosage regimens have been tested to assess the safety of AOL and to better characterized its pharmacokinetics profile, when administered by IV route (Table 2).

Data set [2] deals with myocardial ischemia-reperfusion, left coronary artery occlusion. Description: In vivo ischemia-reperfusion model in rat (30 min left coronary artery occlusion, 3 h reperfusion). As to conditions: for reduction of the size of the myocardial infarction / reduction of the size of the no-reflow zone: versus control; for Area of necrosis/Area at risk (%) / Area of no-reflow/Area at risk (%): mean±SEM. The method, then:
64 female Sprague Dawley rats (— 6 months old) were anesthetized with intraperitoneal ketamine (90 mg/kg) and xylazine (10 mg/kg). Only female rats were used in this study as it was previously reported that gender had no effect on the extent of myocardial injury in the setting of experimental myocardial infarction in rats (Li & Kloner, 1995. J Thromb Thrombolysis. 2(3):221-225); and that lethal reperfusion-induced arrhythmias led to a higher mortality in male rats versus female rats (Dow et al., 2015. Springerplus. 4:96).
The animals were intubated and mechanically ventilated with room air at respiratory rate of 60 cycles/minute and tidal volume of 1 mL per 100 g body weight (Harvard Apparatus Rodent Ventilator, Model 683, South Natick, Mass). A water circulating heating pad was used to keep the rat body temperature at around 37° C. Their neck surgical area was shaved and cleaned, and catheters were inserted into the jugular vein (for drug delivery) and carotid artery (for arterial waveform monitoring) via cut downs. Under clean conditions, the chest cavity was opened through an incision in the left 4th intercostal space to expose the heart. The pericardium was gently removed to expose the anterior surface of the left ventricle. A 4-0 silk suture was placed under the proximal portion of the left coronary artery as it runs through the interventricular groove just under the tip of the left atrial appendage. The end of the suture was threaded through a small plastic tube to make a snare for coronary artery occlusion. At the time of occlusion, the artery was pulled through the plastic tube and the tube was clamped. Coronary artery reperfusion occurred by releasing the clamp and watching the surface of the heart for reactive hyperemia. The left coronary artery was occluded for 30 minutes followed by 3 hours of reperfusion.
Rats were randomized into one of the 3 groups: • preventive group (n=22): AOL infusion starting 5 minutes before coronary artery occlusion; • curative group (n=20): AOL infusion starting 5 minutes prior to reperfusion; • control group (n=22): vehicle infusion starting 5 minutes before coronary artery occlusion.
The investigators were blinded to the animal randomization. Infusions in all groups were continuous throughout the end of the study (h+3 after reperfusion). In treated rats, the dose of AOL was 0.2 mg/kg/hour delivered in saline at a rate of infusion of 2 mL/kg/hour.
By the end of the 3-hour reperfusion, a solution of thioflavin S was injected into the jugular vein during the last one minute of reperfusion to assess the distribution of the no-reflow phenomenon (also known as “zone of microvascular obstruction”). Thioflavin S is a dye that appears fluorescent in areas receiving perfusion, when heart slices are visualized under UV light; while the no-reflow area, that lacks perfusion, appears dark (non-fluorescent). At the end of the period of reperfusion after thioflavin S injection, the proximal coronary artery was briefly re-occluded and blue dye (Super imperse blue) was injected into the jugular vein.
At the end of this step, the animal was euthanized under deep anesthesia with ketamine/xylazine by intravascular injection of KCl (149 mg/mL) at 0.5 mL/250 g body weight in order to stop the heart in a relative diastolic or relaxed state. The heart was excised and was gently washed in clear saline, and then transected into 4 transverse slices from apex to base.
The heart slices were photographed under white light in order to delineate the ischemic risk zone (pink) versus the non-ischemic regions (blue) that received the blue dye. The heart slices were then photographed under UV light in order to delineate the areas of perfusion by thioflavin S (fluorescent areas) versus the no-reflow zones (non-fluorescent).
Finally, hearts were incubated in 1% of triphenyl tetrazolium chloride (TTC), a chemical that stains viable cells brick red, while dead or necrotic cells appear white. […]

Data set [3] in a line: Two-step infusion after bolus, AOL plasma concentration in human. Format: in vivo. Particulars: 2-step infusion 6 then 3 μg/kg/h (3 h + 9 h), lower and higher bolus doses. The method, then:
In that respect, the management of the immediate post-initiation period has been evaluated using a 2-step infusion approach, i.e., starting with a higher dose (6 jig/kg/h) in the first 3 hours of infusion, and then stepping down to a lower dose (3 jig/kg/h) for the remaining time (in this example, 9 hours, for a total infusion period of 12 hours).
The same 2-step infusion regimen was tested with 2 different bolus doses.

The subject of data set [4] is myocardial ischemic-reperfusion, LAD coronary artery occlusion. Nature of the data set: In vivo ischemia-reperfusion model in sheep (balloon catheter LAD occlusion). Particulars: ST-segment elevation, troponin Ic, CPK, infarct size, ejection fraction; level when occluding balloon deflated. The protocol: (§1) Here, we investigated the effect of AOL in an in vivo ischemic-reperfusion model in sheep, by administering AOL prior to reperfusion to assess the cardioprotective potential of AOL. Several parameters were evaluated: • the infarct size, determined at the end of the experiment (day 3), and assessed by two independent pathologists; • the plasmatic exposure, evaluated by dosing plasma samples collected at regular intervals after administration of AOL by mass spectrometry; • ECG parameters; and • heart contractility, assessed through the measurement of the ejection fraction.
The efficacy of AOL was evaluated by comparing these parameters in vehicle- and AOL-treated groups using the sheep model.
Sheep underwent a myocardial ischemic-reperfusion, while either receiving AOL or the vehicle as a control. The animals underwent a three-day follow-up period and were euthanized on day 3.
Myocardial ischemic followed by reperfusion was induced by using the balloon catheter procedure, which consists in occluding the distal left anterior descending (LAD) coronary artery by inflating/deflating a balloon. This particular procedure allowed to have infarction sizes highly reproducible and to occlude only temporally the coronary artery.
AOL or vehicle were administered as a bolus intravenous (IV) injection 10 minutes prior to reperfusion. […]

A short description of data set [5]: Plasma exposure of AOL metabolite in sheep after bolus/infusion. As to conditions: limit of quantification. Type of data set: in vivo. The method, then: as §1
AOL or vehicle were administered as a bolus intravenous (IV) injection 10 minutes prior to reperfusion. This bolus injection was expected to ensure an effective AOL plasma exposure on reperfusion and was immediately followed by a continuous IV infusion starting at the beginning of the reperfusion, for a total duration of administration (bolus+infusion) of 130 minutes.
This starkly contrasted with the metabolization profile that we had observed in sheep (Example 2), where AOX remained below the limit of quantification (0.5 ng/mL) after bolus/infusion, despite similar or even higher doses (FIGS. 9B & 9C).

The mark [6] stands for this setting: bolus 0.3 μg/kg, infusion 0.4 μg/kg/hr for 12 hours.
Setting [7] is: bolus 0.9 μg/kg, infusion 1.7 μg/kg/hr for 12 hours.
Where [8] appears, read: bolus 1.8 μg/kg, infusion 3 μg/kg/hr for 12 hours.
[9] abbreviates: bolus 4 μg/kg, infusion 6 μg/kg/hr for 12 hours.
Setting [10] is: curative (shortly before reperfusion).
[11] abbreviates: curative group: AOL 0.2 mg/kg/hour infusion starting 5 minutes prior to reperfusion.
[12] abbreviates: preventive (prior to coronary artery occlusion).
[13] abbreviates: preventive group: AOL 0.2 mg/kg/hour infusion starting 5 minutes before coronary artery occlusion.

Like-named read-outs stand apart in the source and are kept apart here.

Regarding `COc1ccc(-c2cc(=S)ss2)cc1` [AOL, 5-(4-methoxyphenyl)dithiole-3-thione], in data set [1] (Y=slope×X, FIG. 8A), the “slope of linear regression, plasma concentration at Cmax (Y) versus bolus dose (X)” value amounted to 1.046. Moreover, in data set [1] (Y=slope×X, FIG. 8B), the “slope of linear regression, plasma concentration at end of infusion (Y) versus infusion dose (X)” value stood at 0.5723. For the same compound, the “time at which steady state was reached” value in data set [1] (all dosage regimens tested) was “around 3 hours”. In addition, the “AOL plasma concentration Valley” value was about 0.08 ng/mL in data set [1] (setting [6]), about 0.37 ng/mL in data set [1] (setting [7]), about 0.72 ng/mL in data set [1] (setting [8]) and about 2.67 ng/mL in data set [1] (setting [9]). Further, the Cmax turned out to be 0.29 ng/mL in data set [1] (setting [6]), 1.04 ng/mL in data set [1] (setting [7]), 1.94 ng/mL in data set [1] (setting [8]) and 4.14 ng/mL in data set [1] (setting [9]). For the same compound, the concentration at 12 hours is about 0.1 ng/mL in data set [1] (setting [6]), about 0.8 ng/mL in data set [1] (setting [7]), about 1.7 ng/mL in data set [1] (setting [8]) and about 3.5 ng/mL in data set [1] (setting [9]). Besides, the “metabolization of AOL into AOX” value in data set [1] (human subjects, FIG. 9A) is reported as “rapidly metabolized into AOX”. The “effect on hemodynamics (heart rate, arterial blood pressure)” value in data set [2] (baseline, end of occlusion, end of 3 hours reperfusion) is on record as “without effect on hemodynamics”. Besides, the entries for the “reduction of the size of the myocardial infarction” value in data set [2] (setting [10]) and in data set [2] (setting [12]) were 11% and 22%, respectively. Also, the “reduction of the size of the no-reflow zone” value in data set [2] (setting [10]) was 23%; in data set [2] (setting [12]), 26%. For the same compound, the “Area of necrosis/Area at risk (%)” value in data set [2] (setting [11]) is given as 50.8 ± 3.9^ %; in data set [2] (setting [13]), 44.5 ± 2.9^& %. Moreover, the “Area of no-reflow/Area at risk (%)” value in data set [2] (setting [11]) came to 30.1 ± 2.3 %; in data set [2] (setting [13]) it was 28.8 ± 2.4 %. In addition, in data set [3], the “trough of AOL plasma concentration after the bolus” value is “abolished the trough”. The “AOL plasma level at reperfusion at which positive impact compared to vehicle was observed” value in data set [4] is reported as > 1 ng per mL of plasma.
With `Oc1ccc(-c2cc(=S)ss2)cc1` [AOX, desmethylanethole trithione], the “appearance of AOX in plasma after start of AOL administration” value in data set [1] (human subjects, FIG. 9A) is “quickly appeared in the plasma”. Moreover, in data set [5], the AOX plasma concentration is under 0.5 ng/mL.

Values taken from patent US20240050402A1, “ANETHOLE TRITHIONE ADMINISTRATION REGIMEN FOR THE PREVENTION OR TREATMENT OF ISCHEMIA-REPERFUSION INJURIES” (priority 2020, published 2024).
